Test results as given in US20050197350A1, “Novel quinoline, tetrahydroquinazoline, and pyrimidine derivatives and methods of treatment related to the use thereof” (TAISHO PHARMACEUTICAL CO., LTD., priority 2003, published 2005).

These molecules were tested on MCH receptors (assay: MCH receptor activity class (method not given)). Details: not given.
In the case of `Cc1cc(N(C)C)nc(N[C@H]2CC[C@@H](NC(=O)c3ccc(F)c(F)c3)CC2)n1` [Example 2568, N-(cis-4-{[4-(dimethylamino)-6-methylpyrimidin-2-yl]amino}cyclohexyl)-3,4-difluorobenzamide], the class is reported as 1. With `Cc1cc(N(C)C)nc(N[C@H]2CC[C@@H](C(=O)NCc3ccc(Br)cc3F)CC2)n1` [Example 2585, cis-N-(4-bromo-2-fluorobenzyl)-4-{[4-(dimethylamino)-6-methylpyrimidin-2-yl]amino}cyclohexanecarboxamide] the class was 1.

Same assay, conditions: MCH receptor activity class 1-3 (percent of control at 10^-7 M or IC50)
`CN(C)c1cc(N[C@H]2CC[C@@H](NC(=S)Nc3ccccc3-c3ccccc3)CC2)nc2ccccc12` [compound 2290] was tested, and the class was 3 (Class 3 The value of percent of control at 10^−7 M was more than 60% or the value of IC50 was more than 200 nM.). For `COc1ccc(NC(=S)N[C@H]2CC[C@@H](Nc3nccc(N(C)C)n3)CC2)c(C)c1` [compound 2341], the class was 3 (Class 3 The value of percent of control at 10^−7 M was more than 60% or the value of IC50 was more than 200 nM.). In the case of `Cc1onc(-c2ccccc2)c1NC(=S)N[C@H]1CC[C@@H](Nc2nccc(N(C)C)n2)CC1` [compound 2354], the class is reported as 3 (Class 3 The value of percent of control at 10^−7 M was more than 60% or the value of IC50 was more than 200 nM.).

Same assay, conditions: MCH receptor; class by percent of control at 10^-7 M or IC50
`CN(C)c1nc(N[C@H]2CC[C@@H](NC(=O)Nc3cc(Cl)ccc3[N+](=O)[O-])CC2)nc2c1CCCC2` [compound 1901] was tested, and the class was 3 (Class 3 The value of percent of control at 10^−7 M was more than 60% or the value of IC50 was more than 200 nM.). `COc1cc(NC(=S)N[C@H]2CC[C@@H](Nc3nc4c(c(N(C)C)n3)CCCC4)CC2)cc(OC)c1` [compound 2006] was tested, and the class was 3 (Class 3 The value of percent of control at 10^−7 M was more than 60% or the value of IC50 was more than 200 nM.). `CN(C)c1nc(N[C@H]2CC[C@@H](NC(=S)Nc3ccc(C(F)(F)F)cc3)CC2)nc2c1CCCC2` [compound 1989] was tested, and the class was 3 (Class 3 The value of percent of control at 10^−7 M was more than 60% or the value of IC50 was more than 200 nM.). `CN(C)c1ccc(NC(=O)N[C@H]2CC[C@@H](Nc3nc4c(c(N(C)C)n3)CCCC4)CC2)cc1` [compound 1922] was tested, and the class was 3 (Class 3 The value of percent of control at 10^−7 M was more than 60% or the value of IC50 was more than 200 nM.). `CN(C)c1nc(N[C@H]2CC[C@@H](NC(=S)Nc3cccc(C#N)c3)CC2)nc2c1CCCC2` [compound 1983] was tested, and the class was 3 (Class 3 The value of percent of control at 10^−7 M was more than 60% or the value of IC50 was more than 200 nM.). In the case of `CN(C)c1nc(N[C@H]2CC[C@@H](NC(=O)Nc3ccc4c(c3)C(F)(F)OC(F)(F)O4)CC2)nc2c1CCCC2` [compound 1913], the class is reported as 3 (Class 3 The value of percent of control at 10^−7 M was more than 60% or the value of IC50 was more than 200 nM.). `COc1ccc(NC(=S)N[C@H]2CC[C@@H](Nc3nc4c(c(N(C)C)n3)CCCC4)CC2)cc1` [compound 1949] was tested, and the class was 3 (Class 3 The value of percent of control at 10^−7 M was more than 60% or the value of IC50 was more than 200 nM.). In the case of `CCOC(=O)c1ccc(NC(=S)N[C@H]2CC[C@@H](Nc3nc4c(c(N(C)C)n3)CCCC4)CC2)cc1` [compound 2013], the class is reported as 3 (Class 3 The value of percent of control at 10^−7 M was more than 60% or the value of IC50 was more than 200 nM.).

Same assay, conditions: activity class 1-3: percent of control at 10^-7 M or IC50
`CSc1ccc(NC(=O)N[C@H]2CC[C@@H](Nc3nc4c(c(N(C)C)n3)CCCC4)CC2)cc1` [compound 1665] was tested, and the class was 3 (Class 3 The value of percent of control at 10^−7 M was more than 60% or the value of IC50 was more than 200 nM.). For `CN(C)c1ccnc(N[C@H]2CC[C@@H](CNC(=O)OCc3ccccc3Cl)CC2)n1` [compound 1656], the class was 3 (Class 3 The value of percent of control at 10^−7 M was more than 60% or the value of IC50 was more than 200 nM.).

Same assay, conditions: activity class per percent of control at 10^-7 M or IC50
In the case of `COc1ccc(CNC[C@H]2CC[C@@H](Nc3cc(N(C)C)c4ccccc4n3)CC2)c(OC)c1OC` [compound 1132], the class is reported as 3 (Class 3 The value of percent of control at 10^−7 M was more than 60% or the value of IC50 was more than 200 nM.). `CN(C)c1nc(N[C@H]2CC[C@@H](CNC(=O)Cc3c(Cl)ccc(Cl)c3Cl)CC2)nc2c1CCCC2` [compound 1062] was tested, and the class was 2 (Class 2: The value of percent of control at 10^−7 M was from 40% to 60% or the value of IC′50 was from 50 nM to 200 nM.).

Same assay, conditions: class 1-3 by percent of control at 10^-7 M or IC50
For `Cc1cc(C(=O)N[C@H]2CC[C@@H](Nc3nc4c(c(N(C)C)n3)CCCC4)CC2)c(C)o1` [compound 507], the class was 1 (Class 1: The value of percent of control at 10^−7 M was less than 40% or the value of IC50 was less than 50 nM.). For `CN(C)c1nc(N[C@H]2CC[C@@H](NC(=O)CCc3ccccc3)CC2)nc2c1CCCC2` [compound 563], the class was 3 (Class 3 The value of percent of control at 10^−7 M was more than 60% or the value of IC50 was more than 200 nM.). With `CN(C)c1ccnc(N[C@H]2CC[C@@H](CNC(=O)c3cncc(Br)c3)CC2)n1` [compound 433] the class was 3 (Class 3 The value of percent of control at 10^−7 M was more than 60% or the value of IC50 was more than 200 nM.).

Same assay, conditions: class by percent of control at 10^-7 M or IC50
With `CN(C)c1ccnc(N[C@H]2CC[C@@H](NC(=O)CCc3ccccc3)CC2)n1` [compound 345] the class was 3 (Class 3 The value of percent of control at 10^−7 M was more than 60% or the value of IC50 was more than 200 nM.). For `CN(C)c1nc(N[C@H]2CC[C@@H](CNC(=O)/C=C/c3ccccc3Cl)CC2)nc2c1CCCC2` [compound 669], the class was 3 (Class 3 The value of percent of control at 10^−7 M was more than 60% or the value of IC50 was more than 200 nM.). For `COc1cc(OC)cc(C(=O)NC[C@H]2CC[C@@H](Nc3nc4c(c(N(C)C)n3)CCCC4)CC2)c1` [compound 638], the class was 3 (Class 3 The value of percent of control at 10^−7 M was more than 60% or the value of IC50 was more than 200 nM.). In the case of `Cc1cc(C)c(CNC[C@H]2CC[C@@H](Nc3nccc(N(C)C)n3)CC2)c(C)c1` [compound 1302], the class is reported as 3 (Class 3 The value of percent of control at 10^−7 M was more than 60% or the value of IC50 was more than 200 nM.). For `CN(C)c1ccnc(N[C@H]2CC[C@@H](NC(=O)c3csc(-c4cccs4)n3)CC2)n1` [compound 364, N-(cis-4-{[4-(dimethylamino)pyrimidin-2-yl]amino}cyclohexyl)-2-(2-thienyl)-1,3-thiazole-4-carboxamide], the class was 1 (Class 1: The value of percent of control at 10^−7 M was less than 40% or the value of IC50 was less than 50 nM.). In the case of `CN(C)c1ccnc(N[C@H]2CC[C@@H](NC(=O)COc3c(F)c(F)c(F)c(F)c3F)CC2)n1` [compound 340, N-(cis-4-{[4-(dimethylamino)pyrimidin-2-yl]amino}cyclohexyl)-2-(pentafluorophenoxy)acetamide], the class is reported as 2 (Class 2: The value of percent of control at 10^−7 M was from 40% to 60% or the value of IC′50 was from 50 nM to 200 nM.). For `CN(C)c1ccnc(N[C@H]2CC[C@@H](NC(=O)CSc3ccccc3)CC2)n1` [compound 281], the class was 3 (Class 3 The value of percent of control at 10^−7 M was more than 60% or the value of IC50 was more than 200 nM.). With `CN(C)c1ccnc(N[C@H]2CC[C@@H](CNCc3cc(C(F)(F)F)cc(Cl)c3F)CC2)n1` [compound 1318] the class was 3 (Class 3 The value of percent of control at 10^−7 M was more than 60% or the value of IC50 was more than 200 nM.). For `COc1ccc2c(CC(=O)N[C@H]3CC[C@@H](Nc4cc(N(C)C)c5ccccc5n4)CC3)cc(=O)oc2c1` [compound 715], the class was 3 (Class 3 The value of percent of control at 10^−7 M was more than 60% or the value of IC50 was more than 200 nM.). With `CN(C)c1nc(N[C@H]2CC[C@@H](NC(=O)Nc3ccc([N+](=O)[O-])cc3Cl)CC2)nc2c1CCCC2` [compound 1854] the class was 3 (Class 3 The value of percent of control at 10^−7 M was more than 60% or the value of IC50 was more than 200 nM.). In the case of `CN(C)c1nc(N[C@H]2CC[C@@H](CNCc3c[nH]nc3-c3ccc(C(F)(F)F)cc3)CC2)nc2c1CCCC2` [compound 1377], the class is reported as 2 (Class 2: The value of percent of control at 10^−7 M was from 40% to 60% or the value of IC′50 was from 50 nM to 200 nM.). With `CN(C)c1cc(N[C@H]2CC[C@@H](NC(=S)NCc3ccccc3Cl)CC2)nc2ccccc12` [compound 2279] the class was 3 (Class 3 The value of percent of control at 10^−7 M was more than 60% or the value of IC50 was more than 200 nM.). For `Cc1cc(C)c(C(=O)NC[C@H]2CC[C@@H](Nc3cc(N(C)C)c4ccccc4n3)CC2)c(C)c1` [compound 231, N-[(cis-4-{[4-(dimethylamino)quinolin-2-yl]amino}cyclohexyl)methyl]-2,4,6-trimethylbenzamide], the class was 1 (Class 1: The value of percent of control at 10^−7 M was less than 40% or the value of IC50 was less than 50 nM.). With `CN(C)c1ccnc(N[C@H]2CC[C@@H](CNCc3ccc4c(c3)OCCO4)CC2)n1` [compound 1263] the class was 3 (Class 3 The value of percent of control at 10^−7 M was more than 60% or the value of IC50 was more than 200 nM.). For `CN(C)c1nc(N[C@H]2CC[C@@H](NC(=S)Nc3cccc4ccccc34)CC2)nc2c1CCCC2` [compound 1744], the class was 3 (Class 3 The value of percent of control at 10^−7 M was more than 60% or the value of IC50 was more than 200 nM.). For `Cc1cccc(C(C)C)c1NC(=O)N[C@H]1CC[C@@H](Nc2cc(N(C)C)c3ccccc3n2)CC1` [compound 2109, N-(cis-4-{[4-(dimethylamino)quinolin-2-yl]amino}cyclohexyl)-N′-(2-isopropyl-6-methylphenyl)urea], the class was 2 (Class 2: The value of percent of control at 10^−7 M was from 40% to 60% or the value of IC′50 was from 50 nM to 200 nM.). `CCc1ccccc1CNC[C@H]1CC[C@@H](Nc2cc(N(C)C)c3ccccc3n2)CC1` [compound 1201] was tested, and the class was 3 (Class 3 The value of percent of control at 10^−7 M was more than 60% or the value of IC50 was more than 200 nM.). With `CC(C)Oc1ccc(CNC[C@H]2CC[C@@H](Nc3cc(N(C)C)c4ccccc4n3)CC2)cc1` [compound 1156] the class was 3 (Class 3 The value of percent of control at 10^−7 M was more than 60% or the value of IC50 was more than 200 nM.). In the case of `CN(C)c1cc(N[C@H]2CC[C@@H](NC(=O)c3ccccc3-c3ccccc3)CC2)nc2ccccc12` [compound 755], the class is reported as 3 (Class 3 The value of percent of control at 10^−7 M was more than 60% or the value of IC50 was more than 200 nM.).
